Assays:
[1] = tested on: Wnt activity (Wnt-responsive Sp5 promoter-luciferase reporter in SW480 cells); assay: Wnt activity screening assay: Sp5-Luc reporter gene in SW480 colon carcinoma cells; assay type: cell-based; details: Homo sapiens
Summary of the method: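 IC50 values come from variable-slope four-parameter fits of luciferase signal normalized to DMSO wells. Stable Sp5-Luc reporter SW480 colon carcinoma cells were exposed to compounds in a 3-fold dilution series (source plates from 10 mM stock) for forty-two hours at 37 °C.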

[2] = tested on: primary human fibroblasts derived from IPF patients (LL29 cells); assay: Inhibition of fibrotic process: αSMA staining in TGF-β1-treated primary human fibroblasts from IPF patients (LL29 cells); assay type: cell-based; details: Fibroblast, 96 h, LL29 cells treated with TGF-β1 (20 ng/mL), 4 days, 11-point dose-response from 10 μM to 1.87 nM, read-out: Inhibition of fibrosis EC50
Summary of the method: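 LL29 IPF lung fibroblasts in F12 with 1% FBS, compound (11-point, 10 μM to 1.87 nM, 0.1% DMSO) plus TGF-β1 20 ng/mL for 4 days at 37° C. αSMA-positive % of SYTOX-negative cells by immunofluorescence imaging, normalized to TGF-β1 wells; EC50 from non-linear regression of triplicates.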

| Compound | IC50 [1] | EC50 [2] |
| --- | --- | --- |
| Cc1ccc(-c2cncc3[nH]c(-c4n[nH]c5cnc(-c6cncc(CN7CCCCC7)c6)cc45)nc23)s1 [Compound 353, 3-(7-(5-Methylthiophen-2-yl)-3H-imidazo[4,5-c]pyridin-2-yl)-5-(5-(piperidin-1-ylmethyl)pyridin-3-yl)-1H-pyrazolo[3,4-c]pyridine] | 1040 nM | 251 nM |
| CS(=O)(=O)NCc1cc(F)cc(-c2cncc3[nH]c(-c4n[nH]c5cnc(-c6cncc(NC(=O)c7ccccc7)c6)cc45)nc23)c1 [Compound 401, N-(5-(3-(7-(3-Fluoro-5-(methylsulfonamidomethyl)phenyl)-3H-imidazo[4,5-c]pyridin-2-yl)-1H-pyrazolo[3,4-c]pyridin-5-yl)pyridin-3-yl)benzamide] | 774 nM | ≥ 9990 nM |
| CS(=O)(=O)NCc1cc(F)cc(-c2cncc3[nH]c(-c4n[nH]c5cnc(-c6cncnc6)cc45)nc23)c1 [Compound 416, N-(3-Fluoro-5-(2-(5-(pyrimidin-5-yl)-1H-pyrazolo[3,4-c]pyridin-3-yl)-3H-imidazo[4,5-c]pyridin-7-yl)benzyl)methanesulfonamide] | > 10000 nM | ≥ 9990 nM |
| CN(C)CCNc1cc(F)cc(-c2cncc3[nH]c(-c4n[nH]c5cnc(-c6cncc(N(C)C)c6)cc45)nc23)c1 [Compound 423] | 482 nM | 2030 nM |
| CCCCC(=O)Nc1cncc(-c2cc3c(-c4nc5c(-c6cc(F)cc(NCCN(C)C)c6)cncc5[nH]4)n[nH]c3cn2)c1 [Compound 434, N-(5-(3-(7-(3-((2-(Dimethylamino)ethyl)amino)-5-fluorophenyl)-3H-imidazo[4,5-c]pyridin-2-yl)-1H-pyrazolo[3,4-c]pyridin-5-yl)pyridin-3-yl)pentanamide] | 227 nM | 8260 nM |
| CN(C)CCNc1cc(F)cc(-c2cncc3[nH]c(-c4n[nH]c5cnc(-c6cncc(CNCC7CCCC7)c6)cc45)nc23)c1 [Compound 440, N^1-(3-(2-(5-(5-(((Cyclopentylmethyl)amino)methyl)pyridin-3-yl)-1H-pyrazolo[3,4-c]pyridin-3-yl)-3H-imidazo[4,5-c]pyridin-7-yl)-5-fluorophenyl)-N2,N2-dimethylethane-1,2-diamine] | 1210 nM | ≤ 9 nM |
| Fc1cccc(-c2cncc3[nH]c(-c4n[nH]c5cnc(C6CCNCC6)cc45)nc23)c1 [Compound 885, 3-(7-(3-Fluorophenyl)-3H-imidazo[4,5-c]pyridin-2-yl)-5-(piperidin-4-yl)-1H-pyrazolo[3,4-c]pyridine] | > 10000 nM | ≥ 9990 nM |
| Fc1cccc(-c2cncc3[nH]c(-c4n[nH]c5cnc(C6=CCNCC6)cc45)nc23)c1 [Compound 886, 3-(7-(3-Fluorophenyl)-3H-imidazo[4,5-c]pyridin-2-yl)-5-(1,2,3,6-tetrahydropyridin-4-yl)-1H-pyrazolo[3,4-c]pyridine] | 1940 nM | 72 nM |
| Cc1ncc(-c2cc3c(-c4nc5c(-c6cccc(F)c6)cncc5[nH]4)n[nH]c3cn2)n1C [Compound 889, 5-(1,2-Dimethyl-1H-imidazol-5-yl)-3-(7-(3-fluorophenyl)-3H-imidazo[4,5-c]pyridin-2-yl)-1H-pyrazolo[3,4-c]pyridine] | 552 nM | 46 nM |
| O=C(CC1CCNCC1)Nc1cncc(-c2cc3c(-c4nc5c(-c6cccc(F)c6)cncc5[nH]4)n[nH]c3cn2)c1 [Compound 893, N-(5-(3-(7-(3-Fluorophenyl)-3H-imidazo[4,5-c]pyridin-2-yl)-1H-pyrazolo[3,4-c]pyridin-5-yl)pyridin-3-yl)-2-(piperidin-4-yl)acetamide] | > 10000 nM | ≥ 9990 nM |
| Fc1cccc(-c2cncc3[nH]c(-c4n[nH]c5cnc(-c6ccccn6)cc45)nc23)c1 [Compound 901, 3-(7-(3-Fluorophenyl)-3H-imidazo[4,5-c]pyridin-2-yl)-5-(pyridin-2-yl)-1H-pyrazolo[3,4-c]pyridine] | 805 nM | 584 nM |

The next compounds have a lower IC50 [1] than those just listed; values first:

| IC50 [1] | Compound | EC50 [2] |
| --- | --- | --- |
| 6.5 nM | CCCC(=O)Nc1cncc(-c2cc3c(-c4nc5c(-c6ccc(C)s6)cncc5[nH]4)n[nH]c3cn2)c1 [Compound 355, N-(5-(3-(7-(5-Methylthiophen-2-yl)-3H-imidazo[4,5-c]pyridin-2-yl)-1H-pyrazolo[3,4-c]pyridin-5-yl)pyridin-3-yl)butyramide] | 148 nM |
| 17.6 nM | CCCCC(=O)Nc1cncc(-c2cc3c(-c4nc5c(-c6ccc(C)s6)cncc5[nH]4)n[nH]c3cn2)c1 [Compound 356, N-(5-(3-(7-(5-Methylthiophen-2-yl)-3H-imidazo[4,5-c]pyridin-2-yl)-1H-pyrazolo[3,4-c]pyridin-5-yl)pyridin-3-yl)pentanamide] | 110 nM |
| 33.5 nM | Cc1ccc(-c2cncc3[nH]c(-c4n[nH]c5cnc(-c6cncc(NC(=O)C7CCCC7)c6)cc45)nc23)s1 [Compound 359, N-(5-(3-(7-(5-Methylthiophen-2-yl)-3H-imidazo[4,5-c]pyridin-2-yl)-1H-pyrazolo[3,4-c]pyridin-5-yl)pyridin-3-yl)cyclopentanecarboxamide] | 689 nM |
| 46.7 nM | Cc1ccncc1-c1cc2c(-c3nc4c(-c5cc(F)cc(CNS(C)(=O)=O)c5)cncc4[nH]3)n[nH]c2cn1 [Compound 395, N-(3-Fluoro-5-(2-(5-(4-methylpyridin-3-yl)-1H-pyrazolo[3,4-c]pyridin-3-yl)-3H-imidazo[4,5-c]pyridin-7-yl)benzyl)methanesulfonamide] | ≤ 9 nM |
| 29.6 nM | CS(=O)(=O)NCc1cc(F)cc(-c2cncc3[nH]c(-c4n[nH]c5cnc(-c6cncc(NC(=O)C7CCC7)c6)cc45)nc23)c1 [Compound 410, N-(5-(3-(7-(3-Fluoro-5-(methylsulfonamidomethyl)phenyl)-3H-imidazo[4,5-c]pyridin-2-yl)-1H-pyrazolo[3,4-c]pyridin-5-yl)pyridin-3-yl)cyclobutanecarboxamide] | 475 nM |
| 58 nM | CS(=O)(=O)NCc1cc(F)cc(-c2cncc3[nH]c(-c4n[nH]c5cnc(-c6cncc(CNCc7ccccc7)c6)cc45)nc23)c1 [Compound 413, N-(3-(2-(5-(5-((Benzylamino)methyl)pyridin-3-yl)-1H-pyrazolo[3,4-c]pyridin-3-yl)-3H-imidazo[4,5-c]pyridin-7-yl)-5-fluorobenzyl)methanesulfonamide] | ≥ 9990 nM |
| 175 nM | CC(C)Nc1cncc(-c2cc3c(-c4nc5c(-c6cc(F)cc(NCCN(C)C)c6)cncc5[nH]4)n[nH]c3cn2)c1 [Compound 428, N^1-(3-Fluoro-5-(2-(5-(5-(isopropylamino)pyridin-3-yl)-1H-pyrazolo[3,4-c]pyridin-3-yl)-3H-imidazo[4,5-c]pyridin-7-yl)phenyl)-N2,N2-dimethylethane-1,2-diamine] | ≥ 9990 nM |
| 59 nM | Oc1cncc(-c2cc3c(-c4nc5c(-c6cccc(F)c6)cncc5[nH]4)n[nH]c3cn2)c1 [Compound 897, 5-(3-(7-(3-Fluorophenyl)-3H-imidazo[4,5-c]pyridin-2-yl)-1H-pyrazolo[3,4-c]pyridin-5-yl)pyridin-3-ol] | 32 nM |
| 65 nM | Fc1cccc(-c2cncc3[nH]c(-c4n[nH]c5cnc(-c6ccncc6)cc45)nc23)c1 [Compound 900, 3-(7-(3-Fluorophenyl)-3H-imidazo[4,5-c]pyridin-2-yl)-5-(pyridin-4-yl)-1H-pyrazolo[3,4-c]pyridine] | ≤ 9 nM |

Source: patent US10052331B2, “3-(3H-imidazo[4,5-C]pyridin-2-yl)-1H-pyrazolo[3,4-C]pyridine and therapeutic uses thereof” (Samumed, LLC, priority 2014, dated 2018)
